# US4778797A, “Organo-silicon compounds, process for the manufacture of same, and anti-tumor agent comprising the compound” (Sanwa Kagaku Kenkyusho Co., Ltd., priority 1984, dated 1988)
# Like-named read-outs stand apart in the source and are kept apart here.
# Columns and labels:
# Acute toxicity = type: in vivo, CrJ/CDI female mice; settings: mouse, in vivo; oral gavage, suspended in 0.1% P-1570, female mice, 21 days observation
# Protocol: (§1) Each of testing compounds suspended in 0.1% P-1570 was orally and forcedly dosed through a gastric probe to CrJ/CDI female mice (21 to 22 g, age of about 5 weeks). An identification number was given to each mouse, and a weighing and observation on general behavior were carried out just before the dosage and each day after the same. Each of died mice was subjected without delay to an autopsy to check the same, more particularly in detail on enterona. All of living mice were killed at 21st day from the dosage to carry out an autopsy for checking the same, more particularly on entrails.
# (§2) An LD50 was calculated in accordance with the Leed and Munch's method.
# (§3) A similar test was carried out on each controls of 1-[2-[(2-trimethylsilylethyl)thio]ethylcarbamoyl]-5-fluorouracil and 1-hexylcarbamoyl-5-fluorouracil (HCFU) which is one of exemplary anti-tumor agents.
# CrJ/CDI female mice = assay: Acute toxicity; type: in vivo; settings: oral gavage
# Protocol: as §1, §2, §3
# Lewis lung carcinoma = assay: Anti-tumor action to Lewis lung carcinoma (primary tumor weight and metastasis); type: in vivo, BDF1 mice; settings: Mus musculus, po, 504 h
# Description: Lewis lung carcinoma (1×10^5 cells) was transplanted under skin of right ear of BDF1 mice (age of about 5 weeks), and each of testing compounds was orally dosed 10 times from 1st to 10th day after the transplantation. At 21st day after the transplantation, the mice were killed to measure a weight of the primarly tumor and to extract a lung. The lung was fixed in a conventional manner to count a number of metastasis on cancerous cells with use of a stereomicroscope having a low magnification. An anti-tumor action of each compound was expressed with an inhibition in weight of the primarly tumor and an inhibition of the metastasis.
# MM-46 adenocarcinoma = assay: Anti-tumor action to MM-46 adenocarcinoma; type: in vivo, C3H/He female mice; settings: oral, 250 mg/kg/day × 3 (1st, 5th, 9th day); days to death, testing vs control group
# Description: MM-46 adenocarcinoma (1×10^6 cells) was transplanted under skin of C3H/He female mice (age of about 5 weeks), and each of testing compounds was orally dosed at 1st, 5th and 9th day after the transplantation to check days of life on the mice.
# T: days to death on testing group, and
# C: days to death on control group.
# L-1210 leukemia = assay: Anti-tumor action to L-1210 leukemia; type: in vivo, BDF1 female mice; settings: Mus musculus, L1210, oral; for ILS at 250 mg/kg/day: 250 mg/kg/day × 3 (1st, 5th, 9th day); for ILS at 500 mg/kg/day: 500 mg/kg/day × 3 (1st, 5th, 9th day)
# Protocol: L-1210 leukemia cell (1×10^5 cells) was transplanted in a abdominal cavity of BDF1 female mice (20-21 g, age of about 5 weeks), and each of testing compounds was orally dosed in 250 mg/kg or 500 mg/kg at 1st, 5th and 9th day after the transplantation to check days of life of the mice. [formula]
# B-16 melanoma = assay: Anti-tumor action to B-16 melanoma; type: in vivo, BDF1 female mice; settings: Mus musculus, B16, 504 h, oral, tumor weight at 21st day, read-out: B-16 melanoma Inhibition ratio
# Description: B-16 melanoma (1×10^5 cells) was transplanted under skin of BDF1 female mice (age of about 5 weeks), and each of testing compounds was orally dosed at 1st, 5th and 9th day after the transplantation. At 21st day after the transplantation, the mice were killed to measure a weight of the cancerous tumor and to finally determine an inhibition ratio.
# Colon-38 carcinoma = assay: Anti-tumor action to Colon-38 carcinoma; type: in vivo, BDF1 mice; settings: Mus musculus, 672 h, oral, tumor weight at 28th day, read-out: colon-38 Inhibition ratio
# Protocol: 0.02 ml of 10(W/V)% cell suspension prepared from a solid cancer cell (Colon-38 carcinoma) were transplanted under skin of BDF1 mice (20-21 g, age of about 5 weeks), and each of testing compounds was orally dosed to the mice at 1st, 5th and 9th day after the transplantation. A major and minor axes of the cancerous tumor were measured at 11th, 14th, 21st, 25th and 28th day after the transplantation to calcurate volume of the tumor in accordance with the following.
# At 28th day from the transplantation, the mice were killed and each of the cancerous tumors was extracted to measure its weight and to determine an inhibitation ratio in comparison with a non-treated control group.
# KB cells = assay: Suppression of KB cell proliferation in vitro; type: cell-based; settings: Homo sapiens, 72 h, 3 days exposure, Trypan Blue dye-exclusion, read-out: KB IC50 (50% inhibition density to tumor cell proliferation)
# Protocol: In a cultivation device (5% CO2, 37° C.), KB cells (1×10^4 cells) were cultivated for 24 hours in a culture tube with 1 ml of Eagle culture medium added 10% ox serum, the used culture medium was thrown away to change with a fresh culture medium (0.9 ml), and then 0.1 ml of a similar culture fluid containing each testing compound prepared by the process as described in the Examples was added to cultivate the same for further 3 days. Thereafter, living cells were dyed with Tripan Blue and measured same through a dye-exclusion method.
# A control was treated in a manner similar to the above, except that a culture fluid containing no compound of the invention was added.
# 50% inhibition density (IC50) to the tumor cell proliferation was decided through the tests between the testing group and the control group to obtain results as shown in following Table 1.
compound,measurement,setting,value
"C[Si](C)(C)CCSCCNC(=O)n1cc(F)c(=O)[nH]c1=O [1-[2-[(2-trimethylsilylethyl)thio]ethylcarbamoyl]-5-fluorouracil, reference compound]",LD50 at 504 h,Acute toxicity,1100 mg/kg
same,autopsy findings (ulcer and laxative feces),CrJ/CDI female mice; female mice,an ulcer and laxative feces
same,spasm (general behavior),CrJ/CDI female mice; female mice,a spasm was observed in some mice
"C[Si](C)(C)CCCSCCNC(=O)n1cc(F)c(=O)[nH]c1=O [Example 1, 5-Fluoro-3,4-dihydro-2,4-dioxo-N-[2-[[3-(trimethylsilyl)propyl]thio]ethyl]-1(2H)-pyrimidinecarboxamide]",inhibition in vivo at 13 mg/kg/day,"Lewis lung carcinoma; 13 mg/kg/day × 10 + Amputation, 21st day, read-out: Inhibition Ratio weight LLC",33.2%
same,inhibition in vivo at 13 mg/kg/day,"Lewis lung carcinoma; 13 mg/kg/day × 10 + Amputation, lung, 21st day, printed in parentheses, read-out: Inhibition Ratio metastasis",26.6%
same,inhibition in vivo at 13 mg/kg/day,"Lewis lung carcinoma; 13 mg/kg/day × 10, 21st day, read-out: Inhibition Ratio weight LLC",0%
same,inhibition in vivo at 13 mg/kg/day,"Lewis lung carcinoma; 13 mg/kg/day × 10, lung, 21st day, read-out: Inhibition Ratio metastasis",50.9%
same,inhibition in vivo at 26 mg/kg/day,"Lewis lung carcinoma; 26 mg/kg/day × 10 + Amputation, 21st day, read-out: Inhibition Ratio weight LLC",59.8%
same,inhibition in vivo at 26 mg/kg/day,"Lewis lung carcinoma; 26 mg/kg/day × 10 + Amputation, lung, 21st day, printed in parentheses, read-out: Inhibition Ratio metastasis",> 63%
same,inhibition in vivo at 26 mg/kg/day,"Lewis lung carcinoma; 26 mg/kg/day × 10, 21st day, read-out: Inhibition Ratio weight LLC",51.1%
same,inhibition in vivo at 26 mg/kg/day,"Lewis lung carcinoma; 26 mg/kg/day × 10, lung, 21st day, read-out: Inhibition Ratio metastasis",79.2%
same,inhibition in vivo at 52 mg/kg/day,"Lewis lung carcinoma; 52 mg/kg/day × 10, 21st day, read-out: Inhibition Ratio weight LLC",31.1%
same,inhibition in vivo at 52 mg/kg/day,"Lewis lung carcinoma; 52 mg/kg/day × 10, lung, 21st day, read-out: Inhibition Ratio metastasis",95.7%
same,MM-46 adenocarcinoma T/C × 100,MM-46 adenocarcinoma,181%
same,ILS at 250 mg/kg/day,L-1210 leukemia; read-out: L-1210 ILS,28%
same,ILS at 250 mg/kg/day,L-1210 leukemia; read-out: L-1210 Judgement,25 to 50%
same,ILS at 500 mg/kg/day,L-1210 leukemia; read-out: L-1210 ILS,98%
same,ILS at 500 mg/kg/day,L-1210 leukemia; read-out: L-1210 Judgement,50 to 100%
same,LD50 at 504 h,Acute toxicity,1580 mg/kg
same,inhibition in vivo at 125 mg/kg/day,B-16 melanoma; 125 mg/kg/day × 3,25.8%
same,inhibition in vivo at 250 mg/kg/day,B-16 melanoma; 250 mg/kg/day × 3,73.8%
same,inhibition in vivo at 278 mg/kg/day,Colon-38 carcinoma; 278 mg/kg/day × 3,95.2%
same,IC50,KB cells,20 µg/mL
"C[Si](C)(CCSCCNC(=O)n1cc(F)c(=O)[nH]c1=O)c1ccccc1 [Example 3, N-[2-[[2-(Dimethylphenylsilyl)ethyl]thio]ethyl]-5-fluoro-3,4-dihydro-2,4-dioxo-1(2H)-pyrimidinecarboxamide]",inhibition in vivo at 29.5 mg/kg/day,"Lewis lung carcinoma; 29.5 mg/kg/day × 10, 21st day, read-out: Inhibition Ratio weight LLC",20.7%
same,inhibition in vivo at 29.5 mg/kg/day,"Lewis lung carcinoma; 29.5 mg/kg/day × 10, lung, 21st day, read-out: Inhibition Ratio metastasis",57.5%
same,inhibition in vivo at 59 mg/kg/day,"Lewis lung carcinoma; 59 mg/kg/day × 10, 21st day, read-out: Inhibition Ratio weight LLC",0%
same,inhibition in vivo at 59 mg/kg/day,"Lewis lung carcinoma; 59 mg/kg/day × 10, lung, 21st day, read-out: Inhibition Ratio metastasis",95.1%
same,MM-46 adenocarcinoma T/C × 100,MM-46 adenocarcinoma,205%
same,ILS at 250 mg/kg/day,L-1210 leukemia; read-out: L-1210 ILS,38%
same,ILS at 250 mg/kg/day,L-1210 leukemia; read-out: L-1210 Judgement,25 to 50%
same,ILS at 500 mg/kg/day,L-1210 leukemia; read-out: L-1210 ILS,82%
same,ILS at 500 mg/kg/day,L-1210 leukemia; read-out: L-1210 Judgement,50 to 100%
same,LD50 at 504 h,Acute toxicity,1500 mg/kg
same,inhibition in vivo at 300 mg/kg/day,B-16 melanoma; 300 mg/kg/day × 3,62%
same,inhibition in vivo at 315 mg/kg/day,Colon-38 carcinoma; 315 mg/kg/day × 3,82.1%
same,IC50,KB cells,12 µg/mL
"CCCCCCNC(=O)n1cc(F)c(=O)[nH]c1=O [HCFU, 1-hexylcarbamoyl-5-fluorouracil, reference compound]",LD50,"CrJ/CDI female mice; suspended in 0.1% P-1570, female mice, 21 days observation",1250 mg/kg
